Article PMC10747733, “N-Substituted 2-(Benzenosulfonyl)-1-Carbotioamide Derivatives Exert Antimicrobial and Cytotoxic Effects via Aldehyde Dehydrogenase Pathway: Synthesis, In Silico and In Vitro Studies” (Pharmaceuticals, 2023)
≈ marks a conversion by molar mass, not a printed value. Entries after “also recorded” stand apart in the source; their conditions may differ.

Legend:
in vitro = format: cell-based, sheep; details: sheep
Method: The toxicity of WZ1–WZ4 compounds towards red blood cells was tested using the erythrocyte lysis assay (ELA). Erythrocytes from fresh sheep blood (BioMaxima S.A., Poland) were centrifuged and washed with 0.85% NaCl. Next, 100 μL of a 2% suspension of red blood cells in physiological saline was added to the wells of microtiter plate. The double dilutions of compounds WZ1–WZ4 were prepared in the range of 2000–15.62 μg/mL. Appropriate controls were used to assess the hemolytic potential of tested compounds, i.e., 100% lysis of erythrocytes using 4% Triton X-100 (Pol-Aura, Różnowo, Poland) and 0% lysis in saline solution. Next, all sample plates were incubated (1 h at 37 °C), centrifuged for 10 min to separate unlysed red blood cells, and the supernatant was placed in a new plate. The ELA is a biological test by which the lytic response can be measured spectrophotometrically (at a wavelength of 450 nm) by the amount of hemoglobin released. The hemolysis percentage was calculated according to the following equation:(1) % Hemolysis = A450 of test compound treated sample − A450 of buffer treated sample/A450 of 4% Triton X100 treated samples − A450 of buffer treated sample × 100

ALDH1A1 [1] = assay: ALDH1A1 concentration by ELISA in 769-P cells; format: cell-based, human
Method: (§1) The effect of compounds WZ1–WZ4 on ALDHA1 levels was investigated (Figure 10). The Du145, HepG2 and 769-P cell lines were treated with the calculated IC25 values for each compound.
(§2) Selected cell lines, viz HepG2, Du145 and 769-P, were seeded into 6-well plates and incubated for 24 h after seeding with compounds at a concentration equal to IC25. After a further 24 h or 48 h, cells were detached with trypsin and centrifuged. The resulting cell pellet was resuspended in 0.5 mL PBS. The samples were then sonicated, and protein was determined using the Bradford method (Bio-rad; Hercules, CA, USA). Samples were equilibrated to 10 mg/mL of protein, and ALDH1A1 was determined in the samples prepared in this way. ALDH1A1 determination was performed using an ELISA (SEE824Hu; Cloud Clone Corp., Katy, TX, USA), according to the manufacturer’s protocol.

Candida spp. = assay: Broth microdilution, summary over reference Candida spp.; format: cell-based; details: for MFC: Candida, yeasts; for MFC/MIC: reference yeasts, except WZ4 towards C. parapsilosis
Excerpt: Reference strains of microorganisms that came from American Type Culture Collection (ATCC) (Manassas, VA, USA) were used for this study. The representative Gram-positive bacteria were as follows: Staphylococcus aureus ATCC 25923, Staphylococcus aureus ATCC 29213, Staphylococcus aureus ATCC 43300, Staphylococcus epidermidis ATCC 12228, Enterococcus faecalis ATCC 29212, Micrococcus luteus ATCC 10240, Bacillus subtilis ATCC 6633 and Bacillus cereus ATCC 10876. While, those of Gram-negative bacteria were as follows: Bordetella bronchiseptica ATCC 4617, Escherichia coli ATCC 25922, Klebsiella pneumoniae ATCC 13883, Proteus mirabilis ATCC 12453, Salmonella Typhimurium ATCC 14028 and Pseudomonas aeruginosa ATCC 9027. Moreover, the following fungi belonging to yeasts were used: Candida albicans ATCC 10231, Candida albicans ATCC 2091, Candida parapsilosis ATCC 22019, Candida glabrata ATCC 90030 and Candida krusei ATCC 14243.
The new compounds WZ1–WZ4 were assayed for both antibacterial and antifungal activity using the broth microdilution method in accordance with the European Committee on Antimicrobial Susceptibility Testing (EUCAST) and Clinical and Laboratory Standards Institute (CLSI) guidelines. The microorganisms were grown at 35 °C for 18–24 h on appropriate media (nutrient agar and Sabouraud for bacteria and fungi, respectively) (BioMaxima S.A., Lublin, Poland). Next, microbial suspensions with an optical density of 0.5 McFarland standard scale (in sterile 0.85% NaCl) were prepared. In turn, the tested compounds were initially diluted at 50 mg/mL in dimethyl sulfoxide (DMSO) and the broth microdilution method was used to assess their minimum inhibitory concentrations (MICs). For these studies, selective broth Mueller-Hinton (MH) (BioMaxima S.A., Lublin, Poland) and RPMI (Roswell Park Memorial Institute) 1640 with MOPS (3-(N-Morpholino)propanesulfonic acid) (Sigma-Aldrich Chemicals, St. Louis, MO, USA) were used for bacteria and fungi, respectively. The antimicrobial effect of compounds WZ1–WZ4 was determined in the concentration range from 2000 to 0.98 µg/mL.
Then, the microbial suspensions were introduced into each well of the microplate and incubated for 18–24 h at 35 °C. […] The reference drugs ciprofloxacin or vancomycin (against bacteria) and nystatin (against fungi) (Sigma-Aldrich Chemicals, St. Louis, MO, USA) were also used. Next, the values of the minimum bactericidal concentration (MBC) and minimum fungicidal concentration (MFC) of WZ1–WZ4 were assessed. For this purpose, the cultures from each MIC determination well were transferred to a suitable solid medium and incubated under appropriate conditions. The lowest concentrations of compounds without microbial growth were read as MBC or MFC. The studies were performed in triplicate and representative data were gathered.
In turn, the MBC/MIC or MFC/MIC ratios were used to assess bactericidal/fungicidal (MBC/MIC or MFC/MIC ≤ 4) and bacteriostatic/fungistatic (MBC/MIC or MFC/MIC > 4) effect of these compounds [93].

ALDH1A1 [2] = assay: ALDH1A1 concentration by ELISA in Du145 cells; format: cell-based, human
Method: as §1, §2

## O=S(=O)(NNC(=S)NC1CCCCC1)c1ccccc1 [WZ1, 2-(Benzenesulfonyl)-N-Cyclohexylhydrazine-1-Carbothioamide]
In vitro
  hemolysis at 1 h, 15.62 μg/mL: 0%
  hemolysis at 1 h, 31.25 μg/mL: 0%
  hemolysis at 1 h, 62.5 μg/mL: 0%
  hemolysis at 1 h, 125 μg/mL: 2.11%
  hemolysis at 1 h, 250 μg/mL: 7.89%
  hemolysis at 1 h, 500 μg/mL: 14.2%
  hemolysis at 1 h, 1000 μg/mL: 18.4%
  hemolysis at 1 h, 2000 μg/mL: 34.7%
ALDH1A1 [1]; compound at IC25, 24 h
  ALDH1A1 concentration compared to control: decrease
Candida spp.; reference Candida spp.
  anticandidal bioactivity class: no anticandidal bioactivity

## CCCCNC(=S)NNS(=O)(=O)c1ccccc1 [WZ2, 2-(Benzenesulfonyl)-N-Butylhydrazine-1-Carbothioamide]
In vitro
  hemolysis at 1 h, 15.62 μg/mL: 0%
  hemolysis at 1 h, 31.25 μg/mL: 0%
  hemolysis at 1 h, 62.5 μg/mL: 0%
  hemolysis at 1 h, 125 μg/mL: 3.15%
  hemolysis at 1 h, 250 μg/mL: 8.95%
  hemolysis at 1 h, 500 μg/mL: 19.5%
  hemolysis at 1 h, 1000 μg/mL: 27.9%
  hemolysis at 1 h, 2000 μg/mL: 36.8%
ALDH1A1 [1]; compound at IC25, 24 h
  ALDH1A1 concentration compared to control: no significant changes
ALDH1A1 [1]; compound at IC25, 48 h
  ALDH1A1 concentration compared to control: significant decrease
Candida spp.; reference Candida spp.
  anticandidal bioactivity class: no anticandidal bioactivity
ALDH1A1 [2]; compound at IC25, 24 h
  ALDH1A1 concentration compared to control: increased
ALDH1A1 [2]; compound at IC25, 48 h
  ALDH1A1 concentration compared to control: decrease; also recorded: significantly reduced

## CNC(=S)NNS(=O)(=O)c1ccccc1 [WZ4, 2-(Benzenesulfonyl)-N-Methylhydrazine-1-Carbothioamide]
In vitro
  hemolysis at 1 h, 15.62 μg/mL: 0%
  hemolysis at 1 h, 31.25 μg/mL: 0%
  hemolysis at 1 h, 62.5 μg/mL: 0%
  hemolysis at 1 h, 125 μg/mL: 3.16%
  hemolysis at 1 h, 250 μg/mL: 15.8%
  hemolysis at 1 h, 500 μg/mL: 45.3%
  hemolysis at 1 h, 1000 μg/mL: 88.4%
  hemolysis at 1 h, 2000 μg/mL: 100%
ALDH1A1 [1]; compound at IC25, 24 h
  ALDH1A1 concentration compared to control: decrease
ALDH1A1 [1]; compound at IC25, 48 h
  ALDH1A1 concentration compared to control: significant decrease
Candida spp.; C. albicans and C. krusei
  MIC: 250 to 500 µg/mL (≈ 1020 to 2040 µM)
Candida spp.
  MFC: 500 to 2000 µg/mL (≈ 2040 to 8150 µM)
  MFC/MIC: 1–4
Candida spp.; reference Candida spp.
  MIC: 125 to 2000 µg/mL (≈ 510 to 8150 µM)
ALDH1A1 [2]; compound at IC25, 24 h
  ALDH1A1 concentration compared to control: decrease
ALDH1A1 [2]; compound at IC25, 48 h
  ALDH1A1 concentration compared to control: decrease; also recorded: significantly reduced

## CCCCCCNC(=S)NNS(=O)(=O)c1ccccc1 [WZ3, 2-(Benzenesulfonyl)-N-Hexylhydrazine-1-Carbothioamide]
In vitro
  hemolysis at 1 h, 15.62 μg/mL: 0%
  hemolysis at 1 h, 31.25 μg/mL: 0%
  hemolysis at 1 h, 62.5 μg/mL: 0%
  hemolysis at 1 h, 125 μg/mL: 1.14%
  hemolysis at 1 h, 250 μg/mL: 11.4%
  hemolysis at 1 h, 500 μg/mL: 18.2%
  hemolysis at 1 h, 1000 μg/mL: 43.2%
  hemolysis at 1 h, 2000 μg/mL: 85.8%
ALDH1A1 [1]; compound at IC25, 24 h
  ALDH1A1 concentration compared to control: increase
Candida spp.; C. albicans and C. krusei
  MIC: 250 to 500 µg/mL (≈ 792 to 1580 µM)
Candida spp.
  MFC: 500 to 2000 µg/mL (≈ 1580 to 6340 µM)
  MFC/MIC: 1–4
Candida spp.; reference Candida spp.
  MIC: 125 to 2000 µg/mL (≈ 396 to 6340 µM)
ALDH1A1 [2]; compound at IC25, 48 h
  ALDH1A1 concentration compared to control: decrease; also recorded: significantly reduced
